Measured values: PubChem BioAssay (NCI)
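96-well plates; 48 h exposure; 5 concentrations. Endpoints by linear interpolation between flanking doses. Not reached: highest tested concentration assigned. The concentration for full growth arrest is given as TGI.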

What was measured:
Assay in all cases: DTP human tumour cell line panel, 48 h
MALME-3M melanoma = test system: MALME-3M melanoma
OVCAR-4 ovarian = test system: OVCAR-4 ovarian
M14 melanoma = test system: M14 melanoma
HL-60(TB) leukemia = test system: HL-60(TB) leukemia
CCRF-CEM leukemia = test system: CCRF-CEM leukemia
NCI-H522 lung = test system: NCI-H522 lung
A549 NSCLC = test system: A549 NSCLC
SF-295 CNS = test system: SF-295 CNS
OVCAR-3 ovarian = test system: OVCAR-3 ovarian
NCI-H226 lung = test system: NCI-H226 lung
U251 CNS = test system: U251 CNS
HOP-18 NSCLC = test system: HOP-18 NSCLC
LXFL 529 NSCLC = test system: LXFL 529 NSCLC
KM12 colon = test system: KM12 colon
HT29 colon = test system: HT29 colon
DMS 273 small cell lung = test system: DMS 273 small cell lung
HOP-92 NSCLC = test system: HOP-92 NSCLC
OVCAR-8 ovarian = test system: OVCAR-8 ovarian
SNB-19 CNS = test system: SNB-19 CNS
IGROV1 ovarian = test system: IGROV1 ovarian
TK-10 renal = test system: TK-10 renal
NCI-H460 lung = test system: NCI-H460 lung
LOX IMVI melanoma = test system: LOX IMVI melanoma
HOP-62 NSCLC = test system: HOP-62 NSCLC
UACC-257 melanoma = test system: UACC-257 melanoma
K-562 leukemia = test system: K-562 leukemia
XF 498 CNS = test system: XF 498 CNS
KM20L2 colon = test system: KM20L2 colon
HCC-2998 colon = test system: HCC-2998 colon
RPMI-8226 leukemia = test system: RPMI-8226 leukemia
EKVX NSCLC = test system: EKVX NSCLC
COLO 205 colon = test system: COLO 205 colon
NCI-H23 lung = test system: NCI-H23 lung
MOLT-4 leukemia = test system: MOLT-4 leukemia
SNB-78 CNS = test system: SNB-78 CNS
SF-539 CNS = test system: SF-539 CNS
ACHN renal = test system: ACHN renal
CAKI-1 renal = test system: CAKI-1 renal
UACC-62 melanoma = test system: UACC-62 melanoma
DMS 114 small cell lung = test system: DMS 114 small cell lung
SF-268 CNS = test system: SF-268 CNS
786-0 renal = test system: 786-0 renal
DLD-1 colon = test system: DLD-1 colon
UO-31 renal = test system: UO-31 renal
HCT-15 colon = test system: HCT-15 colon
OVCAR-5 ovarian = test system: OVCAR-5 ovarian
M19-MEL melanoma = test system: M19-MEL melanoma
A498 renal = test system: A498 renal
SN12C renal = test system: SN12C renal
SK-OV-3 ovarian = test system: SK-OV-3 ovarian
SW-620 colon = test system: SW-620 colon
SK-MEL-5 melanoma = test system: SK-MEL-5 melanoma
RXF-631 renal = test system: RXF-631 renal
SK-MEL-2 melanoma = test system: SK-MEL-2 melanoma
SNB-75 CNS = test system: SNB-75 CNS
HCT-116 colon = test system: HCT-116 colon
SK-MEL-28 melanoma = test system: SK-MEL-28 melanoma
RXF 393 renal = test system: RXF 393 renal

Measured: TGI

C#Cc1c(C)c(/C=C/C(C)=C\C(=O)OC)n(C)c1C
not listed: SK-MEL-5 melanoma | RXF-631 renal | SK-MEL-2 melanoma | SNB-75 CNS | HCT-116 colon | SK-MEL-28 melanoma | RXF 393 renal
> 100 µM: all other assays above

O=S(c1ccc(O)cc1)c1ccc(O)cc1
not listed: HOP-18 NSCLC | LXFL 529 NSCLC | OVCAR-8 ovarian | SNB-78 CNS | ACHN renal | A498 renal | SN12C renal
> 100 µM: all other assays above
